Each structure is given as a SMILES string.

This note sets out measurements from patent publication US8883785B2, “Certain kynurenine-3-monooxygenase inhibitors, pharmaceutical compositions, and methods of use thereof” (CHDI Foundation, Inc., priority 2010, dated 2014).

Test system in the first data set: not listed separately
Kind of data set: Solubility remark made when LCMS was attempted. In kind it is physicochemical. As to conditions: solvents for LCMS.
As to `Cn1[nH]cc(-c2cc(-c3ccc(Cl)c(Cl)c3)ncn2)c1=O` [4-[6-(3,4-dichlorophenyl)pyrimidin-4-yl]-2-methyl-1H-pyrazol-3-one], the “solubility” value was “Compound is insuffciently souble in any acceptable solvent in order to obtain a meaningful LCMS 1H NMR (500 MHz, DMSO-d6) d ppm 8.88 (1H, s), 8.44 (1H, br.s.), 8.26 (1H, br.s.), 8.19 (1H, d), 8.06 (1H, br.s.), 7.85 (1H, d), 3.45 (3H, s)”.

As to `O=c1[nH]nc(-c2cc(-c3ccc(Cl)c(Cl)c3)ncn2)[nH]1` [5-[6-(3,4-dichlorophenyl)pyrimidin-4-yl]-2,4-dihydro-1,2,4-triazol-3-one], the “solubility” value is given as “very unsoluble compound- LCMS unobtainable 1H NMR (250 MHz, DMSO-d6) d ppm 9.27-9.32 (1 H, m), 8.39- 8.47 (2 H, m), 8.17-8.25 (1 H, m), 7.76-7.85 (1 H, m)”.

The target in the next data set is T1, KMO mouse enzyme (Mus musculus, UniProt Q91WN4).
T1 construct: KMO enzyme prepared at Evotec from mouse liver (4-6 weeks old) via mitochondria isolation; from tissue; host or cells: mouse liver (4-6 weeks old), mitochondria isolation
T1 sequence (Q91WN4 whole entry): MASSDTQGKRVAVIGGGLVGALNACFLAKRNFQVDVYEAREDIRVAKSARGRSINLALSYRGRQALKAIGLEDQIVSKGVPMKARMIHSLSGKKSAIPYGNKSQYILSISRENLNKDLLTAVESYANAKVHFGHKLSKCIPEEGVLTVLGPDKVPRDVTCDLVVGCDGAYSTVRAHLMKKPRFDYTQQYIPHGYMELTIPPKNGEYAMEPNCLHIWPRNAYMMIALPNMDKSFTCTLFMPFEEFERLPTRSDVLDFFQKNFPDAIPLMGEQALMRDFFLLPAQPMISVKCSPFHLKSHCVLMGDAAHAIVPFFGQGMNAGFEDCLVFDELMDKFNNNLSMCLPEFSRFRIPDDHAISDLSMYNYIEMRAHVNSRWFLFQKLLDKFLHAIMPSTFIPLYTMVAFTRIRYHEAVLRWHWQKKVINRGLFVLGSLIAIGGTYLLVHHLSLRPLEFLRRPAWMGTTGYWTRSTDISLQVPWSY
The data set is described as follows: Mouse KMO enzyme assay: L-kynurenine hydroxylation to 3OH-KYN by LC/MS. In kind it is biochemical. The note with it: compound at 10 μM; KMO from mouse liver mitochondria; read-out: INH.Mouse @ 10 μM. The protocol:
Product is quantified by multiple reaction monitoring (MRM method).
IC50's are calculated using automated fitting algorithm (A+Analysis).
Regarding `Clc1ccc(-c2cc(-c3nc4ccccc4[nH]3)ncn2)cc1Cl` [2-[6-(3,4-dichlorophenyl)pyrimidin-4-yl]-1H-benzimidazole], the inhibition at 10 µM turned out to be 49.7%.

As to `Clc1cccc(-c2cc(-c3nc4ccccc4o3)ncn2)c1` [2-[6-(3-chlorophenyl)pyrimidin-4-yl]-1,3-benzoxazole], the inhibition at 10 µM stood at 54.4%.

`Clc1cccc(-c2cc(-c3nc4ccccc4[nH]3)ncn2)c1` [2-[6-(3-chlorophenyl)pyrimidin-4-yl]-1H-benzimidazole]: the inhibition at 10 µM worked out at 102%.

`O=c1[nH]c(-c2cc(-c3ccc(F)c(F)c3)ncn2)no1` [3-[6-(3,4-Difluoro-phenyl)-pyrimidin-4-yl]-4H-[1,2,4]oxadiazol-5-one]: the inhibition at 10 µM is 100%.

Turning to `S=c1[nH]c(-c2cc(-c3ccc(Cl)c(Cl)c3)ncn2)no1` [3-[6-(3,4-dichlorophenyl)pyrimidin-4-yl]-4H-1,2,4-oxadiazole-5-thione], the inhibition at 10 µM was found to be 102%.

On to `O=c1[nH]c(-c2cc(-c3ccc(F)c(Cl)c3)ncn2)no1` [3-[6-(3-Chloro-4-fluoro-phenyl)-pyrimidin-4-yl]-4H-[1,2,4]oxadiazol-5-one], for which the inhibition at 10 µM is 100%.

`CC(C)Oc1ccc(-c2cc(-c3noc(=O)[nH]3)ncn2)cc1Cl` [3-[6-(3-Chloro-4-isopropoxy-phenyl)-pyrimidin-4-yl]-4H-[1,2,4]oxadiazol-5-one]: the inhibition at 10 µM came out at 96%.

For the molecule `Cc1ccc(-c2cc(-c3noc(=O)[nH]3)ncn2)cc1Cl` [3-[6-(3-Chloro-4-methyl-phenyl)-pyrimidin-4-yl]-4H-[1,2,4]oxadiazol-5-one], the inhibition at 10 µM stood at 98%.

`O=c1[nH]c(-c2cc(-c3ccc(OC(F)(F)F)c(Cl)c3)ncn2)no1` [3-[6-(3-Chloro-4-trifluoromethoxy-phenyl)-pyrimidin-4-yl]-4H-[1,2,4]oxadiazol-5-one]: the inhibition at 10 µM was 99%.

Turning to `Cc1ccc(-c2cc(-c3noc(=O)[nH]3)ncn2)cc1F` [3-[6-(3-Fluoro-4-methyl-phenyl)-pyrimidin-4-yl]-4H-[1,2,4]oxadiazol-5-one], the inhibition at 10 µM came to 100%.

Regarding `O=c1[nH]c(-c2cc(-c3cccc(Cl)c3)ncn2)no1` [3-[6-(3-chlorophenyl)pyrimidin-4-yl]-4H-1,2,4-oxadiazol-5-one], the inhibition at 10 µM worked out at 96.3%.

For the molecule `O=c1[nH]c(-c2cc(-c3cncc(Cl)c3)ncn2)no1` [3-[6-(5-chloropyridin-3-yl)pyrimidin-4-yl]-4H-1,2,4-oxadiazol-5-one], the inhibition at 10 µM is 65.2%.

For the molecule `Clc1ccc(-c2cc(-c3cc[nH]n3)ncn2)cc1Cl` [4-(3,4-Dichloro-phenyl)-6-(1H-pyrazol-3-yl)-pyrimidine], the inhibition at 10 µM came out at 19%.

As to `Clc1ccc(-c2cc(-c3ncco3)ncn2)cc1Cl` [4-(3,4-Dichloro-phenyl)-6-oxazol-2-yl-pyrimidine], the inhibition at 10 µM is 93%.

In the case of `Clc1ccc(-c2cc(-c3nccs3)ncn2)cc1Cl` [4-(3,4-Dichloro-phenyl)-6-thiazol-2-yl-pyrimidine], the inhibition at 10 µM amounted to 48%.

Take `Cc1coc(-c2cc(-c3ccc(Cl)c(Cl)c3)nc(C)n2)n1` [4-(3,4-dichlorophenyl)-2-methyl-6-(4-methyl-1,3-oxazol-2-yl)pyrimidine]: the inhibition at 10 µM stood at 46.8%.

For `Clc1ccc(-c2cc(-c3ncc[nH]3)ncn2)cc1Cl` [4-(3,4-dichlorophenyl)-6-(1H-imidazol-2-yl)pyrimidine], the inhibition at 10 µM amounted to 99%.

On to `Clc1ccc(-c2cc(C3=NCCN3)ncn2)cc1Cl` [4-(3,4-dichlorophenyl)-6-(4,5-dihydro-1H-imidazol-2-yl)pyrimidine], for which the inhibition at 10 µM amounted to 95.5%.

`Cc1coc(-c2cc(-c3ccc(Cl)c(Cl)c3)ncn2)n1` [4-(3,4-dichlorophenyl)-6-(4-methyl-1,3-oxazol-2-yl)pyrimidine]: the inhibition at 10 µM came out at 101%.

With `Cc1c[nH]c(-c2cc(-c3ccc(Cl)c(Cl)c3)ncn2)n1` [4-(3,4-dichlorophenyl)-6-(4-methyl-1H-imidazol-2-yl)pyrimidine], the inhibition at 10 µM was 92.3%.

Consider `Clc1ccc(-c2cc(-c3nnc[nH]3)ncn2)cc1Cl` [4-(3,4-dichlorophenyl)-6-(4H-1,2,4-triazol-3-yl)pyrimidine], for which the inhibition at 10 µM amounted to 100%.

`Cc1nc(-c2cc(-c3ccc(Cl)c(Cl)c3)ncn2)no1` [4-(3,4-dichlorophenyl)-6-(5-methyl-1,2,4-oxadiazol-3-yl)pyrimidine]: the inhibition at 10 µM was 51%.

For `Cc1nnc(-c2cc(-c3ccc(Cl)c(Cl)c3)ncn2)[nH]1` [4-(3,4-dichlorophenyl)-6-(5-methyl-4H-1,2,4-triazol-3-yl)pyrimidine], the inhibition at 10 µM was found to be 80%.

Take `FC(F)(F)c1ccn(-c2cc(-c3ccc(Cl)c(Cl)c3)ncn2)n1` [4-(3,4-dichlorophenyl)-6-[3-(trifluoromethyl)pyrazol-1-yl]pyrimidine]: the inhibition at 10 µM was 56.7%.

Consider `FC(F)(F)c1cn(-c2cc(-c3ccc(Cl)c(Cl)c3)ncn2)cn1` [4-(3,4-dichlorophenyl)-6-[4-(trifluoromethyl)imidazol-1-yl]pyrimidine], for which the inhibition at 10 µM is 64.4%.

Consider `FC(F)(F)c1nc(-c2cc(-c3ccc(Cl)c(Cl)c3)ncn2)no1` [4-(3,4-dichlorophenyl)-6-[5-(trifluoromethyl)-1,2,4-oxadiazol-3-yl]pyrimidine], for which the inhibition at 10 µM was 87%.

With `Fc1ccc(-c2cc(-c3nnn[nH]3)ncn2)cc1F` [4-(3,4-difluorophenyl)-6-(1H-tetrazol-5-yl)pyrimidine], the inhibition at 10 µM stood at 101%.

As to `CC(C)Oc1ccc(-c2cc(-c3nnn[nH]3)ncn2)cc1Cl` [4-(3-Chloro-4-isopropoxy-phenyl)-6-(1H-tetrazol-5-yl)-pyrimidine], the inhibition at 10 µM was 100%.

Turning to `FC(F)(F)Oc1ccc(-c2cc(-c3nnn[nH]3)ncn2)cc1Cl` [4-(3-Chloro-4-trifluoromethoxy-phenyl)-6-(1H-tetrazol-5-yl)-pyrimidine], the inhibition at 10 µM was 100%.

Regarding `Cc1ccc(-c2cc(-c3nnn[nH]3)ncn2)cc1F` [4-(3-Fluoro-4-methyl-phenyl)-6-(1H-tetrazol-5-yl)-pyrimidine], the inhibition at 10 µM is 100%.

Consider `Fc1ccc(-c2cc(-c3nnn[nH]3)ncn2)cc1Cl` [4-(3-chloro-4-fluorophenyl)-6-(1H-tetrazol-5-yl)pyrimidine], for which the inhibition at 10 µM was 103%.

For `Cn1nnnc1-c1cc(-c2cccc(Cl)c2)ncn1` [4-(3-chlorophenyl)-6-(1-methyltetrazol-5-yl)pyrimidine], the inhibition at 10 µM is 65.6%.

Regarding `Clc1cccc(-c2cc(-c3nnn[nH]3)ncn2)c1` [4-(3-chlorophenyl)-6-(1H-tetrazol-5-yl)pyrimidine], the inhibition at 10 µM came out at 103%.

For `Cn1nnc(-c2cc(-c3cccc(Cl)c3)ncn2)n1` [4-(3-chlorophenyl)-6-(2-methyltetrazol-5-yl)pyrimidine], the inhibition at 10 µM was 91.2%.

As for `Cc1noc(-c2cc(-c3cccc(Cl)c3)ncn2)n1` [4-(3-chlorophenyl)-6-(3-methyl-1,2,4-oxadiazol-5-yl)pyrimidine], the inhibition at 10 µM is 91%.

On to `Cc1coc(-c2cc(-c3cccc(Cl)c3)ncn2)n1` [4-(3-chlorophenyl)-6-(4-methyl-1,3-oxazol-2-yl)pyrimidine], for which the inhibition at 10 µM came to 101%.

Take `Clc1cccc(-c2cc(-c3nnc[nH]3)ncn2)c1` [4-(3-chlorophenyl)-6-(4H-1,2,4-triazol-3-yl)pyrimidine]: the inhibition at 10 µM turned out to be 102%.

As to `O=c1[nH]cc(-c2cc(-c3ccc(Cl)c(Cl)c3)ncn2)[nH]1` [4-[6-(3,4-dichlorophenyl)pyrimidin-4-yl]-1,3-dihydroimidazol-2-one], the inhibition at 10 µM worked out at 105%.

Turning to `Cn1[nH]cc(-c2cc(-c3ccc(Cl)c(Cl)c3)ncn2)c1=O` [4-[6-(3,4-dichlorophenyl)pyrimidin-4-yl]-2-methyl-1H-pyrazol-3-one], the inhibition at 10 µM was found to be 73.6%.

On to `O=c1[nH]nc(-c2cc(-c3ccc(Cl)c(Cl)c3)ncn2)[nH]1` [5-[6-(3,4-dichlorophenyl)pyrimidin-4-yl]-2,4-dihydro-1,2,4-triazol-3-one], for which the inhibition at 10 µM came to 58.1%.

In the case of `CNC(=O)c1ccc(-c2cc(-c3ccc(Cl)c(Cl)c3)ncn2)nc1` [6-[6-(3,4-dichlorophenyl)pyrimidin-4-yl]-N-methylpyridine-3-carboxamide], the inhibition at 10 µM was determined as 39.1%.

Consider `Clc1cccc(-c2cc(-c3nc4ccc(Cl)cc4[nH]3)ncn2)c1` [6-chloro-2-[6-(3-chlorophenyl)pyrimidin-4-yl]-1H-benzimidazole], for which the inhibition at 10 µM was found to be 39.1%.
